The target of one experiment is T1, PDE10A-PTXm-1 complex (Homo sapiens, UniProt Q9Y233).
T1 construct: Catalytic domain of each protein was cloned between BamHI and XhoI restriction sites in; 6xHis-SUMO (N, cleaved yes); made in house; host or cells: E. coli Rosetta 2 (DE3)
Kind of experiment: Competitive ITC: PTX titrated against PDE10A-PTXm-1 complex. The class given is binding.

For a further experiment, the system named is ejaculated spermatozoa. Kind of experiment: Sperm motility in ejaculated spermatozoa (swim-up, manual assessment). It counts as cell-based, human. As to conditions: PTXm-1 0.25 mM; for progressive motility vs controls / total motility vs controls: 1 h; for progressive motility vs controls / total motility vs controls / percentage of total motile spermatozoa vs controls: PTX 1 mM; for percentage of total motile spermatozoa vs controls: 1 h and 24 h. As for the experimental part: (§1) For the study, subjects with 2–7 days of sexual abstinence were asked to provide their ejaculates by masturbation. After the completion of semen analysis (WHO, 2010), the leftover semen sample from each subject was used for experiment within 1 h of collection and was equally divided into four groups. The semen samples were washed twice with EBSS media (with bicarbonate buffer) by centrifuging at 500 g for 8 min to remove the seminal plasma. […] The EBSS medium used was with bicarbonate buffer. The samples were incubated for 1 h at 37 °C and 5% CO2. The overlay containing motile fraction of capacitated spermatozoa were collected carefully without disturbing the pellet and used for further analysis. The swim-up fraction containing motile spermatozoa were assessed for motility using manual method and sperm motion characteristics using computer assisted sperm analysis (CASA) as described earlier. […] Percentage of spermatozoa with total and progressive motility was calculated. For CASA, 8 µL sperm suspension was placed on a clean microscopic slide, covered with coverslip (18 mm × 18 mm).

Experiment [1] has as its system spermatozoa from asthenozoospermic semen samples. As to the kind of experiment: Sperm kinematics by computer assisted semen analysis (CASA). It counts as cell-based, human. Conditions: 1 h after incubation; PTX 1 mM, PTXm-1 0.25 mM; mean ± SE, N = 28. As for the experimental part:
as §1

The subject of experiment [2] is spermatozoa from normozoospermic samples. Kind of experiment: Calcium ionophore-induced acrosome reaction assay. It counts as cell-based, human. As to conditions: PTX 1 mM, PTXm-1 0.25 mM. Here is the method: The ionophore-induced acrosome reaction was assessed using a method described earlier. The swim-up fraction collected (at 1 and 2 h after incubation) from various groups were incubated with calcium ionophore A23187 (Sigma-Aldrich, Cat. No. C7522) at 37 °C for 1 h (N = 28, normozoospermic). Sperm suspension was washed with phosphate buffered solution (PBS), centrifuged at 300 g for 10 min and fixed on a coverslip using methanol. The spermatozoa were stained with Fluorescein isothiocyanate-conjugated Pisum sativum agglutinin (FITC-PSA, Sigma-Aldrich, Cat. No. L0770), washed with Milli-Q water, counterstained with propidium iodide (PI) and then mounted on slide using mounting media. Percentage of acrosome reacted spermatozoa (without green florescence in acrosome region) were counted in 500 spermatozoa by observing under fluorescence microscope (400x).

For experiment [3], the system named is intracellular cAMP in spermatozoa. Kind of experiment: Intracellular cAMP in spermatozoa. The class given is cell-based, human. As to conditions: 1 h after incubation; PTX 1 mM, PTXm-1 0.25 mM. As for the experimental part: Sperm suspension was centrifuged at 800 g for 10 min and supernatant obtained was frozen at − 80 °C until further analysis. The cAMP level was measured using cAMP test kit as explained by the manufacturers (Elabscience®, Cat. No. E-EL-0056) as described in our earlier report. Briefly, 50 μL of cAMP detection standard or test samples were added to each well of the multi well plate, followed by addition of biotinylated detection solution (50 μL). After 45 min of incubation at 37 °C, the solutions from each well were decanted. The wells of the plate were further washed 3 times using wash buffer and then incubated with 100 μL horse radish peroxidase (HRP) conjugate for 30 min at 37 °C. Further, each well of the multi well plate was washed repeatedly (5 times) and then incubated with 90 μL substrate reagent for 15 min at 37 °C. Finally, the reaction was stopped by adding 50 μL of stop solution and, immediately OD450nm of the each well was measured using Skanit software 5.0 (Multiskan, Photometer, Thermoscientific). The assay was performed in duplicates and standard curve was plotted. The concentration of cAMP was extrapolated from the standard curve.

Experiment [4] relates to tyrosine phosphorylated sperm proteins. As to the kind of experiment: Tyrosine phosphorylation of sperm proteins by immunofluorescence. The class given is cell-based, human. Conditions: PTX 1 mM, PTXm-1 0.25 mM; control 16%. As for the experimental part: The cells were incubated with blocking solution (PBS containing 1% BSA and 0.1% Tween-20) for 1 h followed by incubation at 4 °C overnight with anti phospho-tyrosine antibody (1:300 dilution, Clone PY20, Merck Millipore, Cat. No. 05–947). […] No. S6MQT0101), cells were counterstained with DAPI and observed under fluorescence microscope (1000x, oil immersion). The number of tyrosine phosphoprotein positive spermatozoa were counted in total of 500 spermatozoa and the result was expressed in percentage spermatozoa.

Experiment [5] concerns spermatozoa, oocytes and embryos of Swiss albino mice. Kind of experiment: In vitro fertilization and pre-implantation embryo development. The class given is cell-based. Conditions: for Total cell number (Mean ± SE): blastocysts, PTX 1 mM, PTXm-1 0.25 mM, control 92.78 ± 6.58; for Hatching rate at 120 h post insemination / Blastocyst rate at 120 h post insemination / Fertilization rate at 16 h post insemination: sperm treated with PTX 1 mM or PTXm-1 0.25 mM; for Hatching rate at 120 h post insemination: control 64.56; for Blastocyst rate at 120 h post insemination: control 81.67; for Fertilization rate at 16 h post insemination: control 83.56. As for the experimental part: The adult female Swiss albino mice were stimulated using 5 IU of pregnant mare serum gonadotropin (PMSG) and 10 IU of human chorionic gonadotropin (hCG) at an interval of 48 h. At 13 h post hCG administration, the cumulus oocyte complexes (COCs) were collected by teasing the oviduct into M2 medium. To assess the effect of PTXm-1 on fertilization outcome and the early embryo development, Swiss albino mice were used. The male mice (6 to 8 weeks, N = 6 per trial, total 3 trials) were humanely sacrificed by cervical dislocation and cauda was dissected out. The IVF was performed as described in our earlier report. Briefly, the cauda was teased in a Petri dish containing EBSS (with 0.1% BSA) culture media and incubated at 37 °C, 5% CO2 incubator. After 2 h of incubation, the spermatozoa were collected and divided equally into 4 parts as C, VC, […] and PTXm-1 groups. The sperm suspension was centrifuged at 250 g for 8 min and the supernatant was discarded. […] The overlay containing motile sperm fraction of were collected carefully without disturbing the pellet, and were used for preparation of insemination droplets (80 µL) which was covered with paraffin oil (Cat. No. 61822605001730, Merck, Germany). The female mice were sacrificed humanely by cervical dislocation (N = 12 per trial, total 3 trials). […] […] Blastocyst rate, hatching rate and, DNA damage and total cell number was assessed in blastocysts.

Where [6] appears, read: asthenozoospermic samples, 24 h.

Molecules are shown by their SMILES. Several values for one entry are separate records, joined by “and”; a condition that tells them apart may be missing. Equal entries are not always repeated. Marks after values point to notes of the source that are not given here.

T1 sequence (Q9Y233 718-1035 limits assumed, one chain of several): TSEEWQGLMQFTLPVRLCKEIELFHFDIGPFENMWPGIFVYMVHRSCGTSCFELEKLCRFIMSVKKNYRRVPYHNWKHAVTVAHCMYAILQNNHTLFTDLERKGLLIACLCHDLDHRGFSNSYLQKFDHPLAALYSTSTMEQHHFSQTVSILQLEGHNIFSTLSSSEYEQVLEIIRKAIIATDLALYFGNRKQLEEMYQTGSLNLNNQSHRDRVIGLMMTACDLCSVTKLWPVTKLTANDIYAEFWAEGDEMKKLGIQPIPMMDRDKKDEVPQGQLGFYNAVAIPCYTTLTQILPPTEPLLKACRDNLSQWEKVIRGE

`CC(=O)CCCCn1c(=O)c2c(ncn2C)n(C)c1=O` [PTX, pentoxifylline]: the Kd at PDE10A-PTXm-1 complex (PDE10A-PTXm-1 complex with 2:1 molar ratio) came out at 350 µM. Besides, in the experiment with ejaculated spermatozoa (asthenozoospermic samples), the “progressive motility vs controls” value is listed as “significantly higher” and the “total motility vs controls” value was “significantly higher”. For the same compound, in the experiment with ejaculated spermatozoa (normozoospermic samples), the “percentage of total motile spermatozoa vs controls” value is on record as “increased”. In addition, in experiment [1], the ALH is 5.04 ± 0.06^b µm, the BCF is 8.56 ± 0.17 Hz, the LIN came to 28.47 ± 1.01 and the STR was 66.94 ± 0.98^b,c. In addition, in experiment [1], the VAP worked out at 47.89 ± 0.96 µm/s, the VCL was 112.60 ± 3.10^b µm/s, the VSL came to 28.34 ± 4.67 µm/s and the WOB is on record as 42.54 ± 0.61^b. Moreover, the acrosome reacted spermatozoa in experiment [2] (1 h, control 15.21%) amounted to 24.25%. The acrosome reacted spermatozoa in experiment [2] (2 h) stood at 34.28%. Also, the “intracellular cAMP level vs control and vehicle control” value in experiment [3] is “significantly higher”. Besides, the “spermatozoa with tyrosine phosphorylated proteins” value in experiment [4] was found to be 24.75%. In addition, in experiment [5], the “Total cell number (Mean ± SE)” value was 88.91 ± 6.56^b,c; the “Hatching rate at 120 h post insemination” value is 67.56^a,c %; the “Blastocyst rate at 120 h post insemination” value is on record as 86.34^a,c %; the “Fertilization rate at 16 h post insemination” value was 95.64% and 95.64^b,c %.
Turning to `COc1ccc2cc(/C=C/C(=O)CCCCn3c(=O)c4c(ncn4C)n(C)c3=O)ccc2c1` [PTXm-1], the “decrease of the binding affinity of PTX towards PDE10A in presence of PTXm-1” value on PDE10A-PTXm-1 complex (PDE10A-PTXm-1 2:1 molar ratio) is “~ eight-fold decrease”. Also, in the experiment on ejaculated spermatozoa (asthenozoospermic samples), the “progressive motility vs controls” value was “significantly higher” and the “total motility vs controls” value is given as “significantly higher”. Moreover, in the experiment with ejaculated spermatozoa (setting [6]), the “percentage of progressively motile spermatozoa vs PTX” value is on record as “considerably (P < 0.001) higher percentage” and the “percentage of total motile spermatozoa vs PTX” value is reported as “considerably (P < 0.001) higher percentage”. Besides, in the experiment on ejaculated spermatozoa (normozoospermic samples), the “percentage of total motile spermatozoa vs controls” value is “increased”. Also, the “percentage of progressively motile spermatozoa vs C, VC and PTX” value in the experiment with ejaculated spermatozoa (normozoospermic samples, 24 h) is recorded as “higher percentage of progressively motile spermatozoa”. In experiment [1], the ALH is 5.21 ± 0.09^b µm, the BCF was 9.67 ± 0.19^b,c,d Hz, the LIN is on record as 27.78 ± 1.02 and the VAP was 45.90 ± 0.97 µm/s. Besides, in experiment [1], the VCL is 109.6 ± 3.27^a µm/s, the VSL was found to be 27.67 ± 3.79 µm/s and the WOB is reported as 41.87 ± 0.70^b. Also, in experiment [2] (1 h, control 15.21%), the acrosome reacted spermatozoa amounted to 15.78%. Besides, the acrosome reacted spermatozoa in experiment [2] (2 h) is 25.17%. In addition, the “intracellular cAMP level vs control and vehicle control” value in experiment [3] is on record as “significantly higher”. The “spermatozoa with tyrosine phosphorylated proteins” value in experiment [4] came to 23.25%. Also, in experiment [5], the “Total cell number (Mean ± SE)” value is reported as 93.23 ± 8.56^e; the “Hatching rate at 120 h post insemination” value was 66.89^b,d %; the “Blastocyst rate at 120 h post insemination” value was 88.45^b,d %; the “Fertilization rate at 16 h post insemination” value is 96.25% and 96.25^b,c %.

What is called Kd is the equilibrium constant for the complex coming apart.

The record behind these values is publication PMC8192908 (Scientific Reports, 2021).
